Earlier results on 1 compound are cited in patent US20110319370A1, “Combination Hormone Therapy for the Eye” (DUQUESNE UNIVERSITY OF THE, priority 2010, published 2011).

In brackets after ≈: the same amount, converted by molar mass.

Data set [1] concerns newborn rats treated with buthionine sulfoximine (BSO). To be noted: cataracts develop by age 16 days, reduced from 100% without melatonin.

On to `COc1ccc2[nH]cc(CCNC(C)=O)c2c1` [Melatonin], for which the “solubility in aqueous media” value (aqueous media) was 2.4 mg/mL (≈ 10.3 mM). Moreover, the “solubility in organic solvents” value (organic solvents) was 140.5 mg/mL (≈ 605 mM). The cataract incidence in data set [1] is 6.2%.
